pIC50: −log10 of the molar value.
Tests used:
Assay type in all cases: functional, cell-based
NCI-H460 = assay: Growth inhibition of human NCI-H460 cells by MTT assay
SF-268 = assay: Growth inhibition of human SF268 cells by MTT assay
MCF7 = assay: Growth inhibition of human MCF7 cells by MTT assay

| SMILES | pIC50 (NCI-H460) | pIC50 (SF-268) | pIC50 (MCF7) |
| --- | --- | --- | --- |
| O=P1(C(c2ccccc2)P2(=O)Oc3ccccc3CN2c2ccc(F)c(Cl)c2)Oc2ccccc2CN1c1ccc(F)c(Cl)c1 (stereo unspecified) | 5.42 | 5.55 | 5.39 |
| O=P1(C(/C=C/c2ccccc2)P2(=O)Oc3ccccc3CN2c2ccc(F)c(Cl)c2)Oc2ccccc2CN1c1ccc(F)c(Cl)c1 (stereo unspecified) | 4.93 | 4.94 | 4.88 |
| O=[N+]([O-])c1cccc(C(P2(=O)Oc3ccccc3CN2c2ccc(F)c(Cl)c2)P2(=O)Oc3ccccc3CN2c2ccc(F)c(Cl)c2)c1 (stereo unspecified) | 4.89 | 4.97 | 4.75 |
| CC1(C)COP(=O)(C(c2ccccc2)P2(=O)OCC(C)(C)CO2)OC1 | < 3.00 | < 3.00 | < 3.00 |
| O=P1(C(c2ccc(Cl)cc2)P2(=O)Oc3ccccc3CN2c2ccc(F)c(Cl)c2)Oc2ccccc2CN1c1ccc(F)c(Cl)c1 (stereo unspecified) | 4.96 | 4.95 | 4.84 |
| C/C=C/C(P1(=O)Oc2ccccc2CN1c1ccc(F)c(Cl)c1)P1(=O)Oc2ccccc2CN1c1ccc(F)c(Cl)c1 (stereo unspecified) | 5.09 | 5.07 | 4.95 |
| O=P1(C(c2ccncc2)P2(=O)Oc3ccccc3CN2c2ccc(F)c(Cl)c2)Oc2ccccc2CN1c1ccc(F)c(Cl)c1 (stereo unspecified) | 4.91 | 4.93 | 4.94 |
| CC1(C)COP(=O)(C(c2ccncc2)P2(=O)OCC(C)(C)CO2)OC1 | < 3.00 | < 3.00 | < 3.00 |
| Cc1ccc(C(P2(=O)Oc3ccccc3CN2c2ccc(F)c(Cl)c2)P2(=O)Oc3ccccc3CN2c2ccc(F)c(Cl)c2)cc1 (stereo unspecified) | 5.05 | 5.11 | 4.90 |
| NP(=O)(O)C(c1ccc(Cl)cc1)P(N)(=O)O (stereo unspecified) | 4.12 | 4.04 | 4.15 |
| CC1(C)COP(=O)(C(c2cccc([N+](=O)[O-])c2)P2(=O)OCC(C)(C)CO2)OC1 | < 3.00 | < 3.00 | < 3.00 |
| C/C=C/C(P1(=O)OCC(C)(C)CO1)P1(=O)OCC(C)(C)CO1 | < 3.00 | < 3.00 | < 3.00 |
| CCN(CC)c1ccc(C(P2(=O)Oc3ccccc3CN2c2ccc(F)c(Cl)c2)P2(=O)Oc3ccccc3CN2c2ccc(F)c(Cl)c2)cc1 (stereo unspecified) | 5.24 | 5.41 | 5.24 |
| Cc1ccc(C(P2(=O)OCC(C)(C)CO2)P2(=O)OCC(C)(C)CO2)cc1 | < 3.00 | < 3.00 | < 3.00 |
| CC1(C)COP(=O)(C(c2ccc(Cl)cc2)P2(=O)OCC(C)(C)CO2)OC1 | < 3.00 | < 3.00 | < 3.00 |
| CC1(C)COP(=O)(C(/C=C/c2ccccc2)P2(=O)OCC(C)(C)CO2)OC1 | < 3.00 | < 3.00 | < 3.00 |
| CCN(CC)c1ccc(C(P2(=O)OCC(C)(C)CO2)P2(=O)OCC(C)(C)CO2)cc1 | < 3.00 | < 3.00 | < 3.00 |

— ChEMBL document CHEMBL1149807, “Synthesis and anticancer activity of new class of bisphosphonates/phosphanamidates” (Eur J Med Chem, 2008)
